US10028992B2, “Methods of treating muscular dystrophy” (BOARD OF REGENTS OF THE NEVADA SYSTEM OF HIGHER EDUCATION …, priority 2012, dated 2018)

Tested on: α7 integrin promoter
Assay: muscle cell-based assay: α7βgal+/− myoblasts/myotubes, LacZ reporter, β-galactosidase cleavage of FDG
Set-up: species or system mouse; Results in α7+/− β-galactosidase assay: scale not given here
Conditions: for AC50 / Emax / EC50: Mus musculus; for AC50: log of AC50, given with negative sign, unit of AC50 not given, read-out: Fit Log AC50 (converted); for Emax: read-out: Max Response [%]; for Fit Curve Class: key not given; for Results in α7+/− β-galactosidase assay: Myoblasts; for Results in a α7+/− β-galactosidase assay, Myotubes, 0.5 uM: compound at 0.5 uM; for Results in a α7+/− β-galactosidase assay, Myotubes, 1 uM: compound at 1 uM; for Results in a α7+/− β-galactosidase assay, Myotubes, 5 uM: compound at 5 uM; for Results in a α7+/− β-galactosidase assay, Myotubes, 10 uM: compound at 10 uM; for Results in a α7+/− β-galactosidase assay, Myotubes, 20 uM: compound at 20 uM; for Results in a α7+/− β-galactosidase assay, Myotubes, 40 uM: compound at 40 uM; for EC50: given as log AC50 (negative values), read-out: Fit LogAC50 (converted)
How it was run: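 Primary α7βgal+/− mouse myoblasts (LacZ knocked into α7 integrin exon 1, promoter retained), differentiated; promoter activity read as β-galactosidase conversion of non-fluorescent FDG to fluorescein. Hits followed by dose-response, western analysis and myostatin counterscreen.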

[1] = Table 12, fitted activity at zero concentration
[2] = Table 12 Compound data, concentration-response curve fit
[3] = curve fit, activity at zero concentration

For `COc1ccc(S(=O)(=O)N(NC2=NS(=O)(=O)c3ccccc32)C(=O)C(C)C)cc1` [Compound 37], the AC50 (Table 12) was 2.51 µM, the Emax was 72.9% and the “Fit HillSlope” value (Table 12, curve fit) was 2.4064. The “Fit Zero Activity [%]” value [1] was −2.5935%, the “Fit Curve Class” value (Table 12) was 1.2 and the Score [2] was 64.

`O=C(N[C@@H](Cc1c[nH]c2ccccc12)C(=O)O)C1CCN(S(=O)(=O)c2cccs2)CC1` [drawing 622] was tested, and the “Results in α7+/− β-galactosidase assay” value (0.5 uM) was −0.07999, the “Results in α7+/− β-galactosidase assay” value (1 uM) was −0.01966 and the “Results in α7+/− β-galactosidase assay” value (5 uM) was −0.1194. For the same compound, the “Results in α7+/− β-galactosidase assay” value (10 uM) was −0.09397, the “Results in α7+/− β-galactosidase assay” value (20 uM) was −0.02534 and the “Results in α7+/− β-galactosidase assay” value (40 uM) was −0.04251.

With `CCCn1c(-c2cc(OC)c(OC)c(OC)c2)nc2c1c(=O)[nH]c(=O)n2Cc1ccccc1` [Compound 54] the AC50 (Table 12) was 12.6 µM, the “Fit HillSlope” value (Table 12, curve fit) was 1.1341 and the “Fit Zero Activity [%]” value [1] was 39.3368%. For the same compound, the “Fit Curve Class” value (Table 12) was 2.1 and the Score [2] was 45.

For `O=C1C2CCCN2C(=O)N1CCCN1CCN(c2cccc(Br)c2)CC1` (centres unmarked) [drawing 453], the “Results in a α7+/− β-galactosidase assay, Myotubes, 0.5 uM” value (shortened to “Results … 0.5 uM”) was −0.101, the “Results in a α7+/− β-galactosidase assay, Myotubes, 1 uM” value (from here on “Results … 1 uM”) was −0.07437 and the “Results in a α7+/− β-galactosidase assay, Myotubes, 5 uM” value (shortened to “Results … Myotubes, 5 uM”) was −0.1132. For the same compound, the “Results in a α7+/− β-galactosidase assay, Myotubes, 10 uM” value (from here on “Results … 10 uM”) was 0.07677, the “Results in a α7+/− β-galactosidase assay, Myotubes, 20 uM” value (“Results … 20 uM” below) was −0.1243 and the “Results in a α7+/− β-galactosidase assay, Myotubes, 40 uM” value (shortened to “Results … 40 uM”) was 0.1476.

With `Cc1c(C(=O)N2CCCCC2)c(S(=O)(=O)Nc2cccc(Br)c2)c(C)n1C` [Compound 155] the EC50 was 10 µM, the Score (Table 12 compound data) was 42 and the “Fit Curve Class” value (curve class number) was 2.1. For the same compound, the “Fit HillSlope” value (curve fit) was 3.99 and the “Fit Zero Activity [%]” value [3] was −32.1225%.

In the case of `Cc1ccc(C2=C(CC(=O)O)C(=O)CC2)cc1` [Compound 86], the AC50 (Table 12) is reported as 4.47 µM, the “Fit HillSlope” value (Table 12, curve fit) is reported as 0.8 and the “Fit Zero Activity [%]” value [1] is reported as 0.4963%. For the same compound, the “Fit Curve Class” value (Table 12) was 2.1 and the Score [2] was 44.

In the case of `CC(=O)C1=C(C)Nc2ncnn2C1c1ccc(C)cc1` (centres unmarked) [drawing 447], the “Results … 0.5 uM” value is reported as 0.06012, the “Results … 1 uM” value is reported as −0.01856 and the “Results … Myotubes, 5 uM” value is reported as 0.152. For the same compound, the “Results … 10 uM” value was −0.155, the “Results … 20 uM” value was −0.1763 and the “Results … 40 uM” value was −0.08699.

In the case of `O=C(Nc1ccc(N2CCN(C(=O)c3ccccc3F)CC2)cc1)c1cncc(Br)c1` [Compound 144], the EC50 is reported as 12.6 µM, the Score (Table 12 compound data) is reported as 42 and the “Fit Curve Class” value (curve class number) is reported as 2.1. The “Fit HillSlope” value (curve fit) was 4.095 and the “Fit Zero Activity [%]” value [3] was 9.7776%.

With `COC(=O)C1=C(C)N=C(C)/C(=C(/O)OC)C1c1ccccc1OCc1c(C)no[n+]1[O-]` (centres unmarked) [Compound 12] the AC50 (Table 12) was 2.82 µM, the Emax was 100% and the “Fit HillSlope” value (Table 12, curve fit) was 1.4781. For the same compound, the “Fit Zero Activity [%]” value [1] was 9.3996%, the “Fit Curve Class” value (Table 12) was 1.1 and the Score [2] was 85.

In the case of `Cc1cc(OCC(=O)NC(C)C)ccc1Cl` [Compound 11], the “Activity at 0.307 μM [%] **” value (0.307 μM) is reported as 0%, the AC50 (Table 12) is reported as 3.98 µM and the Emax is reported as 102%. The “Fit HillSlope” value (Table 12, curve fit) was 2.5334, the “Fit Zero Activity [%]” value [1] was −0.509% and the “Fit Curve Class” value (Table 12) was 1.1. It also gave a Score [2] of 85.

`Cc1ccccc1C(=O)Nc1scc(-c2ccc(Br)cc2)c1C(=O)O` [Compound 4] was tested, and the AC50 (Table 12) was 2.82 µM, the Emax was 137% and the “Fit HillSlope” value (Table 12, curve fit) was 1.8617. The “Fit Zero Activity [%]” value [1] was 7.6069%, the “Fit Curve Class” value (Table 12) was 1.1 and the Score [2] was 87.

In the case of `CC1=C(C#N)C(=O)N(C)C(=O)/C1=C\NNc1ccc(F)cc1` [Compound 203], the EC50 is reported as 7.08 µM, the Score (Table 12 compound data) is reported as 42 and the “Fit Curve Class” value (curve class number) is reported as 2.1. The “Fit HillSlope” value (curve fit) was 1.4781 and the “Fit Zero Activity [%]” value [3] was −47.2995%.

For `Oc1nc(SCc2ccc(Cl)cc2)nc2ccsc12` [drawing 427], the “Results … 0.5 uM” value was 0.03102, the “Results … 1 uM” value was −0.01338 and the “Results … Myotubes, 5 uM” value was −0.1454. For the same compound, the “Results … 10 uM” value was 0.05532, the “Results … 20 uM” value was −0.03447 and the “Results … 40 uM” value was −0.1688.

`COc1cc(C=O)ccc1OCC(=O)Nc1ccc2c(c1)OCO2` [drawing 633] was tested, and the “Results in α7+/− β-galactosidase assay” value (0.5 uM) was 0.04105, the “Results in α7+/− β-galactosidase assay” value (1 uM) was −0.1736 and the “Results in α7+/− β-galactosidase assay” value (5 uM) was 0.4398. The “Results in α7+/− β-galactosidase assay” value (10 uM) was 0.09536, the “Results in α7+/− β-galactosidase assay” value (20 uM) was −0.06607 and the “Results in α7+/− β-galactosidase assay” value (40 uM) was −0.1156.

With `N#C/C(=C1/C(=O)Nc2ccc(Br)cc21)c1ccccn1` [drawing 567] the “Results in α7+/− β-galactosidase assay” value (0.5 uM) was 0.2021, the “Results in α7+/− β-galactosidase assay” value (1 uM) was 0.000395 and the “Results in α7+/− β-galactosidase assay” value (5 uM) was −0.2923. The “Results in α7+/− β-galactosidase assay” value (10 uM) was −0.4689, the “Results in α7+/− β-galactosidase assay” value (20 uM) was −0.5478 and the “Results in α7+/− β-galactosidase assay” value (40 uM) was −0.6637.
